The assay concerns the target T1, a4b7 integrin interaction with MadCAM-1 (Homo sapiens, UniProt P13612+P26010).
T1 construct: capture of a4b7 integrin expressing cells, RPMI8866; endogenous in cells; host or cells: RPMI8866
T1 sequence (P13612 34-1032): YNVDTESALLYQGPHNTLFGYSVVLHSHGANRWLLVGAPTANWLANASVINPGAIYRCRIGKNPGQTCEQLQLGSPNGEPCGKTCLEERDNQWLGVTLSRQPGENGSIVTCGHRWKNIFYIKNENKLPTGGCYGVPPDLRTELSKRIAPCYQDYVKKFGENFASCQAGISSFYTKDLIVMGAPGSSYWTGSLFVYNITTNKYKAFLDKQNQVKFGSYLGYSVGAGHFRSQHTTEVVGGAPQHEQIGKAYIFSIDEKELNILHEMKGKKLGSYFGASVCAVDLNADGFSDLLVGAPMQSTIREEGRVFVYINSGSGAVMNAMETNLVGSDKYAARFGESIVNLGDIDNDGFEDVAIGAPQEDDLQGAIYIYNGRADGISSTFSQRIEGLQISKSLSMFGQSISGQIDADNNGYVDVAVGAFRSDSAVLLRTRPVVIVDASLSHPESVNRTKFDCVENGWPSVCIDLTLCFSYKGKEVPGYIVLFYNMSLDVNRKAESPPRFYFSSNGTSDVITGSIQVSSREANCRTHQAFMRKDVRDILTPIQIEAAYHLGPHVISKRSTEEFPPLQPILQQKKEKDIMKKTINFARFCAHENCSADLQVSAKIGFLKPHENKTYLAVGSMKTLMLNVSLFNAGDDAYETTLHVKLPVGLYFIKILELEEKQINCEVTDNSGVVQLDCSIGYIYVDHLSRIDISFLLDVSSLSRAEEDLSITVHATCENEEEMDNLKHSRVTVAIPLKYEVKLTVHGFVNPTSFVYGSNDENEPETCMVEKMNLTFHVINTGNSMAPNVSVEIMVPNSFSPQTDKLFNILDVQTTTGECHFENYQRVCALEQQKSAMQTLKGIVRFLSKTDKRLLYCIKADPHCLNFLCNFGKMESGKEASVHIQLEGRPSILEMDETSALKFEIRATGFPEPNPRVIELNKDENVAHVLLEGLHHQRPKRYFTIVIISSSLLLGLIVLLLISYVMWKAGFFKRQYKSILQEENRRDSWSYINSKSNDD
T1 sequence (P26010 20-798): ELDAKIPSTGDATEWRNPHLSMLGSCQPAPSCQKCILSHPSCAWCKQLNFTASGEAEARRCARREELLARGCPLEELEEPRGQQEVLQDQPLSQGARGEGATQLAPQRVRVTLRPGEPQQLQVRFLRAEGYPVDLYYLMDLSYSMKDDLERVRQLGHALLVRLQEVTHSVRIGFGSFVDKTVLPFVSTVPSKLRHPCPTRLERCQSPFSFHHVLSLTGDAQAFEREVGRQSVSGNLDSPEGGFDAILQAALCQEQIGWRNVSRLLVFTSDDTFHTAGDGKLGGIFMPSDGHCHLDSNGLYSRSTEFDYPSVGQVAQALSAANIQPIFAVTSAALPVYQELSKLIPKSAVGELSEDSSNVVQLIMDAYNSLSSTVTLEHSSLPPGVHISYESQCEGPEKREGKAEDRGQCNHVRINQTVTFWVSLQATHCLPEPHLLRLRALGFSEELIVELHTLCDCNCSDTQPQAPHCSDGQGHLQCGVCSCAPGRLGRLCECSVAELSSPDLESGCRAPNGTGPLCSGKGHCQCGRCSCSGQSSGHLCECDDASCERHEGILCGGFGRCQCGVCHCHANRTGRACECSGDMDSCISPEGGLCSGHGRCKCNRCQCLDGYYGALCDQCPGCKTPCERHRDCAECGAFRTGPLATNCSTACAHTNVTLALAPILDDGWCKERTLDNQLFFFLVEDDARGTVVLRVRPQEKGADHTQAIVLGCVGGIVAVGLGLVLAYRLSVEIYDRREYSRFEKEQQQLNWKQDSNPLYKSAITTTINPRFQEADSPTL
Put plainly: a4b7 Cell Capture Assay (RPMI8866 cells on MAdCAM-1 Fc coated plates). In kind it is cell-based. The following applies: 50% human serum, 1 mM MgCl2, 1 hour incubation, CellTiter-Glo luminescence, read-out: a4B7 cell capture assay RMPI8866-MadCAM EC50. The procedure: The potency of inhibitors in preventing a4b7 integrin interaction with MadCAM-1 was measured by monitoring the capture of a4b7 integrin expressing cells, RPMI8866, on recombinant human MAdCAM-1 Fc chimera protein-coated plates. The protein was a fusion between human MAdCAM-1 (Met1-Gln333, Accession #AAY82472) and human IgG1 (Pro100-Lys330)] (R&D Systems, Catalog #6056-MC). 96-well plates (Thermofisher, Catalog #136102) were coated with the recombinant protein by dispensing 100 μL (1.0 μg/mL) per well. After a quick spin to settle down the coating solution using a plate centrifuge, plates were incubated overnight at 4° C. in a moisture chamber. On Day 2, the plates were washed with PBS using a Bluecatbio Blue®Washer (GentleSpin wash, 3 cycles, pressure=1, volume 150 uL). Blocking solution (1.0% BSA in PBS, Sigma, Catalog #A7979) was then added at 200 uL/well, and the plates were quickly spun to settle down blocking buffer and incubated in cell culture incubator at 37° C. and 5% CO2 for 1 hour. The plates were then washed with 0.1% BSA in PBS using a Bluecatbio Blue®Washer (GentleSpin wash, 3 cycles, pressure=1, volume 150 uL). RPMI8866 cells suspended in assay medium (1 mM MgCl2 25 mM HEPES and 50% human serum, Sigma, Catalog #H4522) at a density of 1.0×10^6 cells/mL were added at 100 uL/well. Each compound evaluated was prepared as a DMSO stock solution. Test compounds were evaluated with a 9-point serial dilution curve (1000, 333.3, 111.1, 55.6, 27.8, 13.9, 6.9, 2.3, and 0.77 nM)) and were added to the plates using a Tecan D.30e Digita dispenser, the dispensed stock is 100 nL and the final DMSO concentration is 0.1%. Potent compounds were re-evaluated at a new 9-point serial dilution curve (100, 33.3, 11.1, 5.6, 2.8, 1.4, 0.69, 0.23, and 0.08 nM). Each titration curves were performed in triplicate on the same plate, and most of compounds were retested in different dates multiple times. The plates were shaken at 300 rpm on orbital plate shaker for 3 minutes to mix the cells and compounds, quickly spun to settle the cells and solution, and incubated in cell culture incubator at 37° C. and 5% CO2. After 1 hour incubation, the unbound cells were washed away with RPMI1640 medium supplemented with 1 mM MgCl2 and 1% BSA) (wash buffer) using a Bluecatbio Blue®Washer (MagbeadsSpin wash, 1 cycle, pressure 1, volume=150 uL). After wash buffer removal, A mixture of wash buffer/CellTiter-Glo® Reagent (Pormega, catalog #G7573) at 1:1 (V/V) was added at volume of 100 uL to each well. The plates were placed in a chamber at 25° C. and incubated for 30 minutes. Luminescence was recorded using a Envision plate reader 2105 according to CellTiter-Glo protocol.
The mean luminescence signals from negative control wells without MadCAM-1 coating and compound treatment (cells only) was defined as 100% binding inhibition, and the mean luminescence signals from positive control wells with MadCAM-1 coating but without compound treatment (MadCAM-1 and cells only) was defined as 0% binding inhibition. The luminescence signals from other compound treated wells were normalized in percentage scale accordingly. The normalized mean % inhibition data were plotted against logarithmic compound concentration in nanomolar and were fitted with 4-parameter logistic model to obtain IC50 for each compound.
Consider `Cc1cc2cc(c1F)[C@H](CC(=O)O)NC(=O)[C@@H](n1cc(CCN3CCC(F)(F)CC3)c(C(F)(F)F)cc1=O)c1cc(ccc1F)COc1cccc(C)c1-2` (single isomer, unassigned) [Example 62], for which the EC50 is 33 nM.
With `Cc1ccc2c(c1C)-c1cc(C)c(F)c(c1)[C@H](CC(=O)O)NC(=O)[C@@H](n1cc(CCN3CC(F)C3)c(C(F)(F)F)cc1=O)c1cc(ccc1F)O2` (relative stereo) [Example 33, [(14R*,17S)-12,19-difluoro-14-{5-[2-(3-fluoroazetidin-1-yl)ethyl]-2-oxo-4-(trifluoromethyl)pyridin-1-yl}-3,4,20-trimethyl-15-oxo-8-oxa-16-azatetracyclo[16.3.1.1^{9,13}.0^{2,7}]tricosa-1(22),2(7),3,5,9,11,13(23),18,20-nonaen-17-yl]acetic acid] the figure was 50 nM.
The figure for `Cc1cc2cc(c1F)[C@H](CC(=O)O)NC(=O)[C@@H](n1cc(CCN3CC(F)(F)C3)c(C(F)(F)F)cc1=O)c1cc(ccc1F)Oc1cccc(C)c1-2` (single isomer, unassigned) [Example 45] is 1.8 nM; for `Cc1cc2cc(c1F)[C@H](CC(=O)O)NC(=O)[C@@H](n1ccc(C(F)(F)F)c(Cl)c1=O)c1cc(ccc1F)Oc1cccc(C)c1-2` (single isomer, unassigned) [Example 76] it is 39 nM; for `Cc1cc2cc(c1F)[C@H](CC(=O)O)NC(=O)[C@@H](n1cc(CCN3CC(F)C3)c(C(F)(F)F)cc1=O)c1cc(ccc1F)Oc1cc(N3C4CCC3COC4)cc(C)c1-2` (relative stereo) [Example 56, [(14R*,17S)-12,19-difluoro-14-{5-[2-(3-fluoroazetidin-1-yl)ethyl]-2-oxo-4-(trifluoromethyl)pyridin-1-yl}-3,20-dimethyl-5-{3-oxa-8-azabicyclo[3.2.1]octan-8-yl}-15-oxo-8-oxa-16-azatetracyclo[16.3.1.1^{9,13}.0^{2,7}]tricosa-1(22),2(7),3,5,9,11,13(23),18,20-nonaen-17-yl]acetic acid] it is 0.97 nM.
With `Cc1cc2cc(c1F)[C@H](CC(=O)O)NC(=O)[C@@H](n1cc(CCN3CC(F)C3)c(C(F)(F)F)cc1=O)c1cc(ccc1F)COc1cc(C(F)(F)F)cc(C)c1-2` (relative stereo) [Example 65, [(15R*,18S)-13,20-difluoro-15-{5-[2-(3-fluoroazetidin-1-yl)ethyl]-2-oxo-4-(trifluoromethyl)pyridin-1-yl}-3,21-dimethyl-16-oxo-5-(trifluoromethyl)-8-oxa-17-azatetracyclo[17.3.1.1^{10,14}.0^{2,7}]tetracosa-1(23),2(7),3,5,10,12,14(24),19,21-nonaen-18-yl]acetic acid] the figure was 77 nM; with `Cc1cc2cc(c1F)[C@H](CC(=O)O)NC(=O)[C@@H](n1cc(CCN3CC(F)C3)c(C(F)(F)F)cc1=O)c1cc(ccc1F)Oc1cccc(C(F)(F)F)c1-2` (relative stereo) [Example 28, [(14R*,17S)-12,19-difluoro-14-{5-[2-(3-fluoroazetidin-1-yl)ethyl]-2-oxo-4-(trifluoromethyl)pyridin-1-yl}-20-methyl-15-oxo-3-(trifluoromethyl)-8-oxa-16-azatetracyclo[16.3.1.1^{9,13}.0^{2,7}]tricosa-1(22),2(7),3,5,9,11,13(23),18,20-nonaen-17-yl]acetic acid], 19 nM.
For the compound `Cc1cccc2c1-c1cc(c(C)s1)[C@H](CC(=O)O)NC(=O)[C@@H](n1cc(CCN3CC(F)C3)c(C(F)(F)F)cc1=O)c1cc(ccc1F)O2` (single isomer, unassigned) [Example 72], the EC50 worked out at 16 nM.
With `Cc1cccc2c1-c1cc(C(F)F)c(F)c(c1)[C@H](CC(=O)O)NC(=O)[C@@H](n1cc(CCN3CC(F)C3)c(C(F)(F)F)cc1=O)c1cc(ccc1F)O2` (relative stereo) [Example 37, [(14R*,17S)-20-(difluoromethyl)-12,19-difluoro-14-{5-[2-(3-fluoroazetidin-1-yl)ethyl]-2-oxo-4-(trifluoromethyl)pyridin-1-yl}-3-methyl-15-oxo-8-oxa-16-azatetracyclo[16.3.1.1^{9,13}.0^{2,7}]tricosa-1(22),2(7),3,5,9,11,13(23),18,20-nonaen-17-yl]acetic acid] the figure was 1.3 nM; with `Cc1cc2cc(c1F)[C@H](CC(=O)O)NC(=O)[C@@H](n1cc(CCN3CC(F)(F)C3)c(C(F)(F)F)cc1=O)c1cc(ccc1F)COc1cccc(C)c1-2` (single isomer, unassigned) [Example 53], 11 nM; with `Cc1cc2cc(c1F)[C@H](CC(=O)O)NC(=O)[C@@H](n1cc(CCCN3CCC3)c(C(F)(F)F)cc1=O)c1cc(ccc1F)Oc1cccc(C)c1-2` (single isomer, unassigned) [Example 21], 0.079 nM.
With `Cc1cc2cc(c1F)[C@H](CC(=O)O)NC(=O)[C@@H](n1cc(CCN3CC(F)C3)c(C(F)(F)F)cc1=O)c1cc(ccc1F)COc1ccc(F)c(C)c1-2` (single isomer, unassigned) [Example 61] the figure was 42 nM.

What is called EC50 is the concentration at which the effect is half-maximal.
